Data from PubChem BioAssay AID588807 (The Scripps Research Institute Molecular Screening Center, 2011).
Calls of active or inactive are those of the source. The rule behind the calls is not given here.

What was measured:
Assay in all cases: competitive ABPP of Abhd10 versus anti-targets – biochemical, fluorescence, gel-based, mouse proteome, selectivity assay for PME-1 inhibitor project, late-stage follow-up (AID 588807)
APEH = settings: anti-target, stronger effect = higher value
[1] = target: Palmitoyl-protein thioesterase ABHD10, mitochondrial (Mus musculus) (UniProt Q6PE15); settings: stronger effect = higher value
Palmitoyl-protein thioesterase ABHD10, mitochondrial (Mus musculus), sequence (Q6PE15 whole entry, looked up): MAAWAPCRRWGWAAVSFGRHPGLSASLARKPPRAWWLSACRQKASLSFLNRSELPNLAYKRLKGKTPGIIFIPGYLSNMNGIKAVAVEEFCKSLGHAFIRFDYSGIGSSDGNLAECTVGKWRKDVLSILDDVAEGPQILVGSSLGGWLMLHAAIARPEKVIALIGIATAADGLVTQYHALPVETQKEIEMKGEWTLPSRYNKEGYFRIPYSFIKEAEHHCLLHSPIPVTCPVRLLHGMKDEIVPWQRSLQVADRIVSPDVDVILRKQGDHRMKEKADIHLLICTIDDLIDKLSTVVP

Kiaa1363 = settings: anti-target, at 10 µM, stronger effect = higher value
[2] = target: Prolyl endopeptidase (Mus musculus) (UniProt Q9QUR6); settings: PREP, anti-target, stronger effect = higher value
Prolyl endopeptidase (Mus musculus), sequence (Q9QUR6 whole entry, looked up): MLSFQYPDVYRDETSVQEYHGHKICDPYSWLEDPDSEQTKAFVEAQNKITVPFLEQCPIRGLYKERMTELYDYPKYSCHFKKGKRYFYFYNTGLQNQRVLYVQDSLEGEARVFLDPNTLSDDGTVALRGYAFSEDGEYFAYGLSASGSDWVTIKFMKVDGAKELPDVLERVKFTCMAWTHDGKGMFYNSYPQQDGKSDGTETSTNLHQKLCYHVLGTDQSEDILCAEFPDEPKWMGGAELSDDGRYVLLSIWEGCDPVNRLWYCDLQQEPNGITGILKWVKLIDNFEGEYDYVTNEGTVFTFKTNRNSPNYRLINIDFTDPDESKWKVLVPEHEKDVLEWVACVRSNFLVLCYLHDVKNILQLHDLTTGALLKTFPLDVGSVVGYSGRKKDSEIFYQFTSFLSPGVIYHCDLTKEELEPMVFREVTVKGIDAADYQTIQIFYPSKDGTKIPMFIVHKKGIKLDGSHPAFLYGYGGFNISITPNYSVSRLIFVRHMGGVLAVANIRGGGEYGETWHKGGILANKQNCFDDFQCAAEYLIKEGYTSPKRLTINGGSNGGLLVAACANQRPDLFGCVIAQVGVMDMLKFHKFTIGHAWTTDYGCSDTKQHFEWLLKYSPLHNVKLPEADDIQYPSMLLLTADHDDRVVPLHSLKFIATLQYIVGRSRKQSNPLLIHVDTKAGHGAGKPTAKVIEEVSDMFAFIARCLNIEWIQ

Magl = settings: anti-target, at 10 µM, stronger effect = higher value
[3] = target: Monoacylglycerol lipase ABHD6 (Mus musculus) (UniProt Q8R2Y0); settings: anti-target, stronger effect = higher value
Monoacylglycerol lipase ABHD6 (Mus musculus), sequence (Q8R2Y0 whole entry, looked up): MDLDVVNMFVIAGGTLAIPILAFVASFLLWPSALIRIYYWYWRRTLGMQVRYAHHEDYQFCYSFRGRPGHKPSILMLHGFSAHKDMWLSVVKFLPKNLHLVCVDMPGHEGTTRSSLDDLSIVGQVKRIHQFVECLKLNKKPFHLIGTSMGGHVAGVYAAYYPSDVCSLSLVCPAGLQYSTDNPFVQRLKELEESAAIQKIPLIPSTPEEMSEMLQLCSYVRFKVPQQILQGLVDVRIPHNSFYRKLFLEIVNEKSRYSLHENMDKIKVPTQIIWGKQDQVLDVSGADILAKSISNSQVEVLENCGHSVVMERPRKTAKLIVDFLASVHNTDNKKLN

| SMILES | inhibition (APEH; at 10 µM) | inhibition ([1]; at 10 µM) | inhibition ([1]; inhibition, at 0.1 µM) | inhibition ([1]; inhibition, at 1 µM) | inhibition (Kiaa1363) | inhibition ([2]; at 10 µM) | inhibition (Magl) | inhibition ([3]; at 10 µM) | inhibition ([3]; inhibition, at 1 µM) | inhibition ([2]; inhibition, at 1 µM) | inhibition (APEH; inhibition, at 0.1 µM) | inhibition (APEH; inhibition, at 1 µM) |
| --- | --- | --- | --- | --- | --- | --- | --- | --- | --- | --- | --- | --- |
| CC[C@@]1(c2cccc(C)c2)C(=O)N(C(=O)OCc2ccccc2)N1C(=O)OCc1ccccc1 | 0% (inactive) | 95% (inactive) | 20% | 65% | 75% (inactive) | 90% (inactive) | 0% (inactive) | 35% (inactive) | 10% |  |  |  |
| CC[C@@]1(c2ccc(C)cc2)C(=O)N(C(=O)OC)N1C(=O)OC | 20% (inactive) | 100% | 55% | 95% | 15% (inactive) | 50% (inactive) | 10% (inactive) | 25% (inactive) |  | 20% |  |  |
| CC[C@@]1(c2cccc(OC)c2)C(=O)N(C(=O)OC(C)C)N1C(=O)OC(C)C | 0% (inactive) | 95% (inactive) | 40% | 90% | 0% (inactive) | 0% (inactive) | 0% (inactive) | 25% (inactive) |  |  |  |  |
| CC[C@@]1(c2ccccc2)C(=O)N(C(=O)OC(C)C)N1C(=O)OC(C)C | 85% (inactive) | 100% | 70% | 90% | 0% (inactive) | 70% (inactive) | 0% (inactive) | 65% (inactive) |  | 10% | 10% | 10% |
| CC[C@@]1(c2cccc(F)c2)C(=O)N(C(=O)OC(C)C)N1C(=O)OC(C)C | 100% (inactive) | 90% (inactive) | 40% | 85% | 15% (inactive) | 0% (inactive) | 10% (inactive) | 0% (inactive) |  |  |  | 20% |
| CC[C@]1(c2cccc(C)c2)C(=O)N(C(=O)OC(C)C)N1C(=O)OC(C)C | 0% (inactive) | 85% (inactive) | 30% | 30% | 0% (inactive) | 0% (inactive) | 0% (inactive) | 10% (inactive) |  |  |  |  |
| COC(=O)N1C(=O)[C@](c2ccccc2)(C2CCCC2)N1C(=O)OC | 85% (inactive) | 0% (inactive) |  |  | 0% (inactive) | 0% (inactive) | 0% (inactive) | 0% (inactive) |  |  |  |  |
| Cc1cccc([C@]2(C)C(=O)N(C(=O)OC(C)C)N2C(=O)OC(C)C)c1 | 25% (inactive) | 100% | 55% | 95% | 0% (inactive) | 40% (inactive) | 10% (inactive) | 0% (inactive) |  |  |  |  |

Other lines, results leading:

| inhibition (APEH; at 10 µM) | inhibition ([1]; at 10 µM) | inhibition ([1]; inhibition, at 0.1 µM) | inhibition ([1]; inhibition, at 1 µM) | inhibition (Kiaa1363) | inhibition ([2]; at 10 µM) | inhibition (Magl) | inhibition ([3]; at 10 µM) | inhibition ([3]; inhibition, at 1 µM) | inhibition ([2]; inhibition, at 1 µM) | inhibition (APEH; inhibition, at 0.1 µM) | inhibition (APEH; inhibition, at 1 µM) | SMILES |
| --- | --- | --- | --- | --- | --- | --- | --- | --- | --- | --- | --- | --- |
| 90% (inactive) | 95% (inactive) | 45% | 90% | 20% (inactive) | 90% (inactive) | 10% (inactive) | 65% (inactive) |  |  |  |  | CC[C@@]1(c2cccc(Cl)c2)C(=O)N(C(=O)OC)N1C(=O)OC |
| 55% (inactive) | 100% (inactive) | 10% | 95% | 35% (inactive) | 65% (inactive) | 20% (inactive) | 45% (inactive) |  | 20% |  |  | C=CCOC(=O)N1C(=O)[C@@](CC)(c2cccc(C)c2)N1C(=O)OC |
| 40% (inactive) | 90% (inactive) | 10% | 70% | 10% (inactive) | 25% (inactive) | 0% (inactive) | 35% (inactive) | 10% |  |  |  | C=CCOC(=O)N1C(=O)[C@@](CC)(c2ccccc2)N1C(=O)OC |
| 0% (inactive) | 60% (inactive) | 10% | 25% | 0% (inactive) | 30% (inactive) | 0% (inactive) | 0% (inactive) |  | 10% |  |  | CC[C@@]1(c2cccc(C)c2)C(=O)N(C(=O)OC(C)C)N1C(=O)OC |
